Results published in patent publication EP4803519A1, “NOVEL PRMT5 INHIBITOR AND USE THEREOF” (Shanghai Apeiron Therapeutics Company Limited, priority 2023, dated 2025).

How the values were obtained:
Assay type in all cases: cell-based
[1] = test system: HCT-116 MTAP(-/-)deleted cells; test: Inhibitory activity on proliferation of HCT-116 MTAP(-/-)deleted cells (Cell-Titer Glo); details: Homo sapiens, 144 h, incubated 6 d, 0-1,000 nM
Procedure: (§1) Materials and cells: HCT-116 MTAP(-/-)deleted cells were purchased from Kyinno Biotechnology (China); RPMI-1640 medium, and fetal bovine serum were purchased from Thermo Fisher (United States); 384-well plates were purchased from PerkinElmer (United States); Cell-Titer Glo kit was purchased from Promega (United States).
Cell culture: HCT116 MTAP(-/-)deleted cells were cultured with RPMI 1640 medium containing 10% fetal bovine serum at 37°C in 5% carbon dioxide. Only cells in the logarithmic growth phase could be used for the test.
(§2) Test of inhibitory activity on cell proliferation: The Cell-Titer Glo kit was used to test the proliferation inhibitory activity of the compounds on HCT-116 MTAP(-/-)deleted cells. The cell concentration was adjusted, rendering that cells were inoculated into a 384-well plate at 40 µL per well and incubated overnight at 37°C and 5% carbon dioxide. 80 nL of the compound was added into each well to reach a final concentration of 0-1,000 nM (starting concentration 1,000 nM, 2.5-fold dilution, 10 points), and the cell plate with 0.2% DMSO content was incubated at 37°C and 5% carbon dioxide for 6 d. 40 µL of Cell-Titer Glo reagent was added to test cell viability.

[2] = test system: LU99 MTAP(-/-)deleted cells; test: Inhibitory activity on proliferation of LU99 MTAP(-/-)deleted cells (Cell-Titer Glo); details: Homo sapiens, Lu-99, 144 h, incubated 6 d, 0-1,000 nM
Procedure: (§3) Materials and cells: LU99 MTAP deleted cell line was purchased from Kyinno Biotechnology (China); cell culture medium and fetal bovine serum were purchased from Thermo Fisher Scientific (USA); 384-well plates were purchased from PerkinElmer (USA); Cell-Titer Glo kits were purchased from Promega (USA).
Cell culture: LU99 MTAP(-/-)deleted cells were cultured with medium containing 10% fetal bovine serum at 37°C in 5% carbon dioxide. Only cells in the logarithmic growth phase could be used for the test.
as §2, with “on LU99” for “on HCT-116”, “dioxide. 40” for “dioxide. 80”, “added to” for “added into”

HCT-116 wild-type cells = test: Inhibitory activity on proliferation of HCT-116 wild-type cells (Cell-Titer Glo); details: Homo sapiens, 144 h, incubated 6 d, 0-10,000 nM
Procedure: as §1, with “wild-type” for “MTAP(-/-)deleted”
Cell culture: HCT-116 wild-type cells were cultured in RPMI-1640 medium containing 10% fetal bovine serum at 37°C and 5% carbon dioxide. Only cells in the logarithmic growth phase could be used for the test.
Test of cell proliferation activity: Cell-Titer Glo kit was used to test the proliferation inhibitory activity of the compound on HCT-116 wild-type cells. The cell concentration was adjusted, rendering that cells were inoculated into a 384-well plate at 40 µL per well and incubated overnight at 37°C and 5% carbon dioxide. 80 nL of the compound was added to each well to reach a final concentration of 0-10,000 nM (starting concentration 10,000 nM, 2.5-fold dilution, 10 points), and the cell plate with 0.2% DMSO content was incubated at 37°C and 5% carbon dioxide for 6 d. 40 µL of Cell-Titer Glo reagent was added to test cell viability.

[3] = test system: LU99 MTAP overexpressing cells; test: Inhibitory activity on proliferation of LU99 MTAP overexpressing cells (Cell-Titer Glo); details: Homo sapiens, Lu-99, 144 h, incubated 6 d, 0-10,000 nM
Procedure: as §3, with “overexpressing” for “deleted”
Cell culture: LU99 MTAP overexpressing cells were cultured with medium containing 10% fetal bovine serum at 37°C in 5% carbon dioxide. Only cells in the logarithmic growth phase could be used for the test.
Test of inhibitory activity on cell proliferation: The Cell-Titer Glo kit was used to test the proliferation inhibitory activity of the compounds on LU99 MTAP overexpressing cells. The cell concentration was adjusted, rendering that cells were inoculated into a 384-well plate at 40 µL per well and incubated overnight at 37°C and 5% carbon dioxide. 40 nL of the compound was added to each well to reach a final concentration of 0-10,000 nM (starting concentration 10,000 nM, 2.5-fold dilution, 10 points), and the cell plate with 0.2% DMSO content was incubated at 37°C and 5% carbon dioxide for 6 d. 40 µL of Cell-Titer Glo reagent was added to test cell viability.

SMILES | IC50 [1] [nM] | IC50 [2] [nM] | IC50 (HCT-116 wild-type cells) [nM] | IC50 [3] [nM]
CN(C(=O)c1cc2c(cc1F)nc(N)c1cnn(C)c12)C1COC(C)(C)c2cc(C(F)(F)F)ccc21 (centres unmarked) [Example 15, 4-Amino-N-(1,1-dimethyl-7-(trifluoromethyl)isochroman-4-yl)-7-fluoro-N,1-dimethyl-1H-pyrazolo[4,3-c]quinoline-8-carboxamide] | 13.6 | 25.9 | 446 | 795
CN(C(=O)c1ccc2nc(N)c3cnn(C)c3c2c1)[C@@H]1COC(C)(C)c2cc(C(F)(F)F)ccc21 [Example 16, (S)-4-amino-N-(1,1-dimethyl-7-(trifluoromethyl)isochroman-4-yl)-N,1-dimethyl-1H-pyrazolo[4,3-c]quinoline-8-carboxamide] | 3.7 | 4.7 | 487 | 682
CN(C(=O)c1ccc2nc(N)c3cnn(C)c3c2c1)[C@H]1COC(C)(C)c2cc(C(F)(F)F)ccc21 [Example 17, (R)-4-amino-N-(1,1-dimethyl-7-(trifluoromethyl)isochroman-4-yl)-N,1-dimethyl-1H-pyrazolo[4,3-c]quinoline-8-carboxamide] | 140 | 174 | 5550 | 5220
CC1OCc2c1c(N)nc1cnc(C(=O)N(C)C3COC(C)(C)c4cc(C(F)(F)F)ccc43)cc21 (centres unmarked) [Example 18, 4-Amino-N-(1,1-dimethyl-7-(trifluoromethyl)isochroman-4-yl)-N,3-dimethyl-1,3-dihydrofuro[3,4-c][1,7]naphthyridine-8-carboxamide] | 38.4 | 62.9 | 3080 | 3970
CN(C(=O)c1ccc2nc(N)c3c(cnn3C)c2c1)[C@@H]1COC(C)(C)c2cc(C(F)(F)F)ccc21 [Example 21, (S)-4-amino-N-(1,1-dimethyl-7-(trifluoromethyl)isochroman-4-yl)-N,3-dimethyl-3H-pyrazolo[3,4-c]quinoline-8-carboxamide] | 20.8 | 33.7 | 4370 | 2820
CN(C(=O)c1ccc2nc(N)c3ccncc3c2c1)C1COC(C)(C)c2cc(C(F)(F)F)ccc21 (centres unmarked) [Example 22, 5-amino-N-(1,1-dimethyl-7-(trifluoromethyl)isochroman-4-yl)-N-methylbenzo[c][2,6]naph thyridine-9-carboxamide] | 13.4 | 25.5 | 1250 | 771
CN(C(=O)c1ccc2nc(N)c3c(c2c1)CCOC3)[C@@H]1COC(C)(C)c2cc(C(F)(F)F)ccc21 [Example 23] | 99.4 | 79.5 | 4860 | 3170
CN(C(=O)c1cc2c(cc1Cl)nc(N)c1cnn(C)c12)C1COC(C)(C)c2cc(C(F)(F)F)ccc21 (centres unmarked) [Example 24, 4-amino-7-chloro-N-(1,1-dimethyl-7-(trifluoromethyl)isochroman-4-yl)-N,1-dimethyl-1H-pyrazolo[4,3-c]quinoline-8-carboxamide] | 15.1 | 16.4 | 156 | 252
CN(C(=O)c1cc2c3c(c(N)nc2cn1)COC3)[C@H]1COC(C)(C)c2cc(C(F)(F)F)ccc21 [Example 25, (R)-4-Amino-N-(1,1-dimethyl-7-(trifluoromethyl)isochroman-4-yl)-N-methyl-1,3-dihydrofuro[3,4-c][1,7]naphthyridine-8-carboxamide] | 817 | 503 | > 10000 | > 10000
CN(C(=O)c1cc2c3c(c(N)nc2cn1)COC3)[C@@H]1COC(C)(C)c2cc(C(F)(F)F)ccc21 [Example 26, (S)-4-Amino-N-(1,1-dimethyl-7-(trifluoromethyl)isochroman-4-yl)-N-methyl-1,3-dihydrofuro[3,4-c][1,7]naphthyridine-8-carboxamide] | 11 | 14.9 | 2050 | 1310
CN(C(=O)c1cc2c(cn1)nc(N)c1cnn(C)c12)[C@H]1COC(C)(C)c2cc(C(F)(F)F)ccc21 [Example 27, (R)-4-amino-N-(1,1-dimethyl-7-(trifluoromethyl)isochroman-4-yl)-N,1-dimethyl-1H-pyrazolo[4,3-c][1,7]naphthyridine-8-carboxamide] | 74 | 51.9 | > 10000 | 9590
CN(C(=O)c1cc2c(cn1)nc(N)c1cnn(C)c12)[C@@H]1COC(C)(C)c2cc(C(F)(F)F)ccc21 [Example 28, (S)-4-amino-N-(1,1-dimethyl-7-(trifluoromethyl)isochroman-4-yl)-N,1-dimethyl-1H-pyrazolo[4,3-c][1,7]naphthyridine-8-carboxamide] | 10.3 | 10.7 | 226 | 376
CN(C(=O)c1cc2c3c(c(N)nc2cn1)COC3)C1COC2(CCC2)c2cc(C(F)(F)F)ccc21 (centres unmarked) [Example 29, 4-Amino-N-methyl-N-(7'-(trifluoromethyl)spiro[cyclobutane-1,1'-isochroman]-4'-yl)-1,3-dihydrofuro[3,4-c][1,7]naphthyridine-8-carboxamide] | 17 | 23.7 | 1790 | 1030
CN(C(=O)c1ccc2nc(N)c3cnn(C)c3c2c1)C1COC2(CCC2)c2cc(C(F)(F)F)ccc21 (centres unmarked) [Example 30] | 5.3 | 10.9 | 767 | 862
CN(C(=O)c1ccc2nc(N)c3cnn(C)c3c2c1)[C@@H]1COC(C)(C)c2cc(-c3cnn(C(F)(F)F)c3)ccc21 [Example 32, (S)-4-amino-N-(1,1-dimethyl-7-(1-(trifluoromethyl)-1H-pyrazol-4-yl)isochroman-4-yl)-N,1-dimethyl-1H-pyrazolo[4,3-c]quinoline-8-carboxamide] | 5.7 | 6.8 | 1530 | 1890
CN(C(=O)c1ccc2nc(N)c3cnn(C)c3c2c1)[C@@H]1COC(C)(C)c2cc(N3CCOCC3)ccc21 [Example 33, (S)-4-amino-N-(1,1-dimethyl-7-morpholinoisochroman-4-yl)-N,1-dimethyl-1H-pyrazolo[4,3-c]quinoline-8-carboxamide] | 5.3 | 8.6 | 1340 | 2260
Cc1ncc(-c2ccc3c(c2)C(C)(C)OC[C@H]3N(C)C(=O)c2ccc3nc(N)c4cnn(C)c4c3c2)cn1 [Example 34, (S)-4-amino-N-(1,1-dimethyl-7-(2-methylpyrimidin-5-yl)isochroman-4-yl)-N,1-dimethyl-1H-pyrazolo[4,3-c]quinoline-8-carboxamide] | 8.5 | 5.2 | 1620 | 1660
